The subject of assay [1] is IL-10. The assay can be described thus: Cytokine ELISA in S. aureus-infected RAW 264.7 cells. It is filed as cell-based, mouse. The following applies: 25 μg/ml, 24 h after treatment. Here is the method:
(§1) To investigate the effects of MP1102 and NZ2114 on cytokine levels in cells infected with S. aureus, RAW264.7 cells (2.5 × 10^5 cells/ml) seeded into 12-well plates were incubated with MRSA ATCC43300 (MOI = 100:1) for 30 min followed by treatment with 50 μg/ml lysostaphin for 1 h to remove non-phagocytosed bacteria. The cells were then treated with 25 μg/ml MP1102, NZ2114 and vancomycin for 12 h and 24 h. Cell-free culture supernatants were collected and the concentrations of cytokines (TNF-α, IL-1β and IL-10) were determined by Jiaxuan Biotech. Co. Ltd. (Beijing, China) using an ELISA kit[58],[59].

Assay [2] relates to IL-1β. The assay is described as above. Type of assay: cell-based, mouse. To be noted: 25 μg/ml, 24 h after infection with MRSA ATCC43300; range over treatments. The protocol:
as §1

The subject of assay [3] is MSSA ATCC25923. Put plainly: Mouse peritonitis model. It is filed as in vivo. The following applies: 20 mg/kg and 10 mg/kg dose, data not shown. Here is the method: The mice were infected by peritoneal injection with different S. aureus strains, including MSSA ATCC25923 (5 × 10^8 CFU), MRSA ATCC43300 (5 × 10^8 CFU) and high virulent CVCC546 (5 × 10^7 CFU), and treated with a single dose of drugs ([…], 20, 30 and 40 mg/kg for ATCC43300 and CVCC546) at 10 min after infection. Twenty-four hours after treatment, the mice were killed and peritoneal fluids were obtained by washing with 5 ml ice-cold PBS. The total number of bacteria in the fluids was determined before any further procedures and then divided into two equal fractions of 1.5 ml each for the following purposes: i) for extracellular bacteria quantification, one fraction was centrifuged for 10 min at 4 °C (300 g) and the supernatant CFU count was quantified and ii) for intracellular bacteria quantification, the other fraction was centrifuged for 5 min at 4 °C (1,000 rpm). The cells were collected and treated with 100 μg/ml gentamicin (MSSA ATCC25923) or 50 μg/ml lysostaphin (MRSA ATCC43300 and high virulent CVCC546) for 1 h at 37 °C to kill extracellular bacteria. The cells were washed twice with ice-cold PBS to remove any anti-extracellular bacterial drug. Subsequently, the cells were lysed and counted as described above for the in vitro experiment method[14],[54].

For assay [4], the system named is virulent staphylococcal strains. To be noted: relative efficacy; cited from earlier work. An excerpt:
This study is the first evaluation of the intracellular anti-staphylococcal properties of the NZ2114 derivative MP1102 using both in vitro and in vivo methods. […] As a corresponding in vivo mouse model, RAW 264.7 macrophages were chosen to evaluate in vitro intracellular activity in this study.

Peptide text beside a SMILES is read from it.

As for `CC[C@H](C)[C@@H]1NC(=O)[C@H](CO)NC(=O)[C@H](CCCCN)NC(=O)[C@@H]2CSSC[C@@H](C(=O)N[C@@H](Cc3ccc(O)cc3)C(=O)O)NC(=O)[C@H](CCCCN)NC(=O)[C@@H]3CSSC[C@H](NC(=O)[C@H](CCCCN)NC(=O)[C@H](C(C)C)NC(=O)[C@H](CC(=O)O)NC(=O)[C@H](CC(=O)O)NC(=O)[C@H](CCC(=O)O)NC(=O)[C@H](CCC(=O)O)NC(=O)[C@H](Cc4c[nH]c5ccccc45)NC(=O)[C@@H]4CCCN4C(=O)CNC(=O)[C@H](CC(N)=O)NC(=O)[C@@H](NC(=O)CNC(=O)[C@H](Cc4ccccc4)NC(=O)CN)CSSC[C@H](NC(=O)[C@H](Cc4ccc(O)cc4)NC(=O)CNC(=O)CNC(=O)[C@H](CCCCN)NC(=O)[C@H](Cc4ccc(O)cc4)NC(=O)CNC(=O)[C@H](CCCCN)NC1=O)C(=O)N[C@@H](C)C(=O)N[C@@H](CCCCN)C(=O)NCC(=O)NCC(=O)N[C@@H](Cc1ccccc1)C(=O)N[C@@H](C(C)C)C(=O)N3)C(=O)N[C@@H](Cc1c[nH]cn1)C(=O)N[C@@H](CC(N)=O)C(=O)N[C@@H](Cc1c[nH]cn1)C(=O)N2` [MP1102] (HELM PEPTIDE1{G.F.G.C.N.G.P.W.E.E.D.D.V.K.C.H.N.H.C.K.S.I.K.G.Y.K.G.G.Y.C.A.K.G.G.F.V.C.K.C.Y}$PEPTIDE1,PEPTIDE1,4:R3-30:R3|PEPTIDE1,PEPTIDE1,15:R3-37:R3|PEPTIDE1,PEPTIDE1,19:R3-39:R3$$$V2.0; N-terminus and C-terminus assumed; bridges inferred), the “IL-10 level change, in contrast to the decrease with NZ2114 and vancomycin” value in assay [1] was determined as 4.8 pg/mL. Also, the “suppressed production of IL-1β” value in assay [2] is 18.7 to 49.5 pg/mL. In addition, the “colonies on the plates” value in assay [3] is on record as “no colonies were observed”.
`CC[C@H]1OC(=O)[C@H](C)[C@@H](O[C@H]2C[C@@](C)(OC)[C@@H](O)[C@H](C)O2)[C@H](C)[C@@H](O[C@@H]2O[C@H](C)C[C@H](N(C)C)[C@H]2O)[C@](C)(O)C[C@@H](C)CN(C)[C@H](C)[C@@H](O)[C@]1(C)O` [azithromycin]: the Emax in assay [4] is listed as −0.5 log CFU.
Take `C[C@@H](O)[C@H]1C(=O)N2C(C(=O)O)=C(SCCN=CN)C[C@H]12` [imipenem]: in assay [4], the Emax is recorded as −0.9 log CFU.
In the case of `Cc1onc(-c2ccccc2)c1C(=O)N[C@@H]1C(=O)N2[C@@H]1SC(C)(C)[C@@H]2C(=O)O` [oxacillin], the Emax in assay [4] is recorded as −0.68 log CFU.

The values are drawn from PMC5844868, “Increased intracellular activity of MP1102 and NZ2114 against Staphylococcus aureus in vitro and in vivo” (Scientific Reports, 2018).
